From ChEMBL document CHEMBL5154867, “Baylis-Hillman Adducts as a Versatile Module for Constructing Fluorogenic Release System” (J Med Chem, 2022) come the findings set out here.

Data set [1] in a line: Prodrug activation in PBS at pH 7.4 assessed as drug release by measuring maximal fluorescence change at 10 uM in presence of 1 mM GSH measured after 40 mins relative to control. The note with it: buffer, pH 7.4, 40 min.
Data set [2] is described as follows: Prodrug activation in PBS at pH 7.4 assessed as drug release by measuring maximal fluorescence change at 10 uM in presence of 1 mM GSH measured after 30 mins relative to control. The following applies: buffer, pH 7.4, 0.5 h.
The nature of data set [3]: Prodrug activation in PBS at pH 7.4 assessed as drug release at 10 uM in presence of 1 mM GSH measured after 60 mins by HPLC analysis relative to control. The following applies: buffer, pH 7.4, 1 h.
Data set [4] in a line: Prodrug activation in PBS at pH 7.4 assessed as drug release at 10 uM in presence of 1 mM GSH measured after 40 mins by HPLC analysis relative to control. The following applies: buffer, pH 7.4, 40 min.
The nature of data set [5]: Prodrug activation in PBS at pH 7.4 assessed as drug release at 10 uM in presence of 1 mM GSH measured after 50 mins by HPLC analysis relative to control. The note with it: buffer, pH 7.4, 50 min.
Data set [6] can be described thus: Prodrug activation in PBS at pH 7.4 assessed as drug release at 10 uM in presence of 1 mM GSH measured after 30 mins by HPLC analysis relative to control. The following applies: buffer, pH 7.4, 0.5 h.
A short description of data set [7]: Prodrug activation in PBS at pH 7.4 assessed as drug release by measuring maximal fluorescence change at 10 uM in presence of 1 mM GSH measured after 50 mins relative to control. The following applies: buffer, pH 7.4, 50 min.
A short description of data set [8]: Prodrug activation in PBS at pH 7.4 assessed as drug release by measuring maximal fluorescence change at 10 uM in presence of 1 mM GSH measured after 20 mins relative to control. The note with it: buffer, pH 7.4, 20 min.
Data set [9] is described as follows: Prodrug activation in PBS at pH 7.4 assessed as drug release by measuring maximal fluorescence change at 10 uM in presence of 1 mM GSH measured after 10 mins relative to control. The following applies: buffer, pH 7.4, 10 min.
The nature of data set [10]: Prodrug activation in PBS at pH 7.4 assessed as drug release by measuring maximal fluorescence change at 10 uM in presence of 1 mM GSH measured immediately relative to control. The following applies: buffer, pH 7.4, 10 µM.
Data set [11] can be described thus: Prodrug activation in PBS at pH 7.4 assessed as drug release by measuring maximal fluorescence change at 10 uM in presence of 1 mM GSH measured after 60 mins relative to control. The note with it: buffer, pH 7.4, 1 h.
Data set [12] in a line: Prodrug activation in PBS at pH 7.4 assessed as drug release at 10 uM in presence of 1 mM GSH measured immediately by HPLC analysis relative to control. The note with it: buffer, pH 7.4, 10 µM.
Data set [13] can be described thus: Prodrug activation in PBS at pH 7.4 assessed as drug release at 10 uM in presence of 1 mM GSH measured after 10 mins by HPLC analysis relative to control. The following applies: buffer, pH 7.4, 10 min.
Data set [14] in a line: Prodrug activation in PBS at pH 7.4 assessed as drug release at 10 uM in presence of 1 mM GSH measured after 20 mins by HPLC analysis relative to control. The note with it: buffer, pH 7.4, 20 min.
The nature of data set [15]: Prodrug activation in PBS at pH 7.4 assessed as drug release by measuring maximal fluorescence change at 10 uM in presence of 2 mM GSH measured after 30 mins relative to control. The following applies: buffer, pH 7.4, 0.5 h.
The nature of data set [16]: Prodrug activation in PBS at pH 7.4 assessed as drug release at 10 uM in presence of 2 mM GSH measured after 50 mins by HPLC analysis relative to control. The following applies: buffer, pH 7.4, 50 min.
A short description of data set [17]: Prodrug activation in PBS at pH 7.4 assessed as drug release at 10 uM in presence of 2 mM GSH measured after 60 mins by HPLC analysis relative to control. The following applies: buffer, pH 7.4, 1 h.
A short description of data set [18]: Prodrug activation in PBS at pH 7.4 assessed as drug release at 10 uM in presence of 2 mM GSH measured after 40 mins by HPLC analysis relative to control. The following applies: buffer, pH 7.4, 40 min.
Data set [19] in a line: Prodrug activation in PBS at pH 7.4 assessed as drug release at 10 uM in presence of 2 mM GSH measured after 30 mins by HPLC analysis relative to control. The note with it: buffer, pH 7.4, 0.5 h.
Data set [20] is described as follows: Prodrug activation in PBS at pH 7.4 assessed as drug release by measuring maximal fluorescence change at 10 uM in presence of 2 mM GSH measured immediately relative to control. The note with it: buffer, pH 7.4, 10 µM.
Data set [21] in a line: Prodrug activation in PBS at pH 7.4 assessed as drug release at 10 uM in presence of 2 mM GSH measured immediately by HPLC analysis relative to control. The following applies: buffer, pH 7.4, 10 µM.
Data set [22] in a line: Prodrug activation in PBS at pH 7.4 assessed as drug release by measuring maximal fluorescence change at 10 uM in presence of 2 mM GSH measured after 10 mins relative to control. The note with it: buffer, pH 7.4, 10 min.
Data set [23] is described as follows: Prodrug activation in PBS at pH 7.4 assessed as drug release at 10 uM in presence of 2 mM GSH measured after 20 mins by HPLC analysis relative to control. The following applies: buffer, pH 7.4, 20 min.
A short description of data set [24]: Prodrug activation in PBS at pH 7.4 assessed as drug release by measuring maximal fluorescence change at 10 uM in presence of 2 mM GSH measured after 40 mins relative to control. The note with it: buffer, pH 7.4, 40 min.
Data set [25] is described as follows: Prodrug activation in PBS at pH 7.4 assessed as drug release at 10 uM in presence of 2 mM GSH measured after 10 mins by HPLC analysis relative to control. The note with it: buffer, pH 7.4, 10 min.
A short description of data set [26]: Prodrug activation in PBS at pH 7.4 assessed as drug release by measuring maximal fluorescence change at 10 uM in presence of 2 mM GSH measured after 20 mins relative to control. The note with it: buffer, pH 7.4, 20 min.
Data set [27] can be described thus: Prodrug activation in PBS at pH 7.4 assessed as drug release by measuring maximal fluorescence change at 10 uM in presence of 2 mM GSH measured after 60 mins relative to control. The note with it: buffer, pH 7.4, 1 h.
Data set [28] can be described thus: Prodrug activation in PBS at pH 7.4 assessed as drug release by measuring maximal fluorescence change at 10 uM in presence of 2 mM GSH measured after 50 mins relative to control. The note with it: buffer, pH 7.4, 50 min.
Data set [29] can be described thus: Prodrug activation in PBS at pH 7.4 assessed as drug release at 10 uM in presence of 2 mM GSH measured after 60 to 300 mins by HPLC analysis relative to control. The note with it: buffer, pH 7.4, 10 µM, time 60-300 min.
A short description of data set [30]: Prodrug activation in PBS at pH 7.4 assessed as drug release by measuring maximal fluorescence change at 10 uM in presence of 2 mM GSH measured after 60 to 300 mins relative to control. The following applies: buffer, pH 7.4, 10 µM, time 60-300 min.

Molecules are shown by their SMILES.

`C=C(CSc1ccccc1)C(=O)c1ccc2cc(N(C)C)ccc2c1`: the Activity was 86.3% in data set [1]; 72.2% in data set [2]; 95.4% in [3]; 95.1% in data set [4]; 94.8% in [5]; 90.6% in data set [6]. Further, the Activity in [7] was 93.7%; in data set [8], 53.5%; in [9], 27.2%; in data set [10], 3.1%; in [11] it was 96.5%; in data set [12], 0%. Besides, the Activity in data set [13] was 42.6%; in data set [14], 76.6%.

Regarding `C=C(COC(=O)c1ccccc1)C(=O)c1ccc2cc(N(C)C)ccc2c1`, the Activity worked out at 88.1% in [15]; 99.9% in data set [16]; 72.1% in data set [17]; 98.7% in data set [18]; 98.6% in data set [19]; 1.4% in data set [20]. For the same compound, the Activity in data set [21] amounted to 0%; in [22], 40.1%; in [23], 97.3%; in data set [24] it was 95.7%; in data set [25], 92.8%; in [26], 71.2%. Moreover, the Activity in data set [27] is reported as 83.2%; in data set [28], 97.8%.

As to `C=C(CSCc1ccccc1)C(=O)c1ccc2cc(N(C)C)ccc2c1`, the Activity is listed as 27.5% in data set [15]; 68.6% in data set [16]; 35.2% in [18]; 99.9% in [29]; 19.9% in [19]; 4.8% in [20]. In addition, the Activity in data set [21] is recorded as 0%; in data set [22], 14.8%; in data set [23], 13.9%; in data set [30] it was 98.6%; in [24], 42.2%; in [25] it was 5.6%. For the same compound, the Activity worked out at 22.1% in data set [26] and 78.3% in data set [28].

`C=C(COC(=O)Nc1ccccc1)C(=O)c1ccc2cc(N(C)C)ccc2c1`: the Activity in data set [1] was found to be 88.9%; in data set [2] it was 79.9%; in [3], 98.2%; in data set [4] it was 97.1%; in data set [5], 97.9%; in [6], 96.5%. In addition, the Activity in data set [7] turned out to be 94.6%; in data set [8], 64.6%; in data set [9], 39.3%; in [10], 2.7%; in [11] it was 96.5%; in data set [12] it was 0%. Also, the Activity in [13] was found to be 82.6%; in data set [14] it was 91.1%.

As to `C=C(CN(C)Cc1ccccc1)C(=O)c1ccc2cc(N(C)C)ccc2c1`, the Activity in data set [1] worked out at 93.5%; in data set [2] it was 85.1%; in data set [3], 92.4%; in [4] it was 92%; in data set [5], 93.1%; in data set [6], 92.2%. For the same compound, the Activity in data set [7] came out at 96.5%; in [8] it was 72.5%; in data set [9] it was 50.5%; in [10], 3.8%; in data set [11] it was 97.1%; in data set [12] it was 0%. Moreover, the Activity amounted to 88.2% in data set [13] and 91.8% in [14].

As to `C=C(C[N+](C)(C)Cc1ccccc1)C(=O)c1ccc2cc(N(C)C)ccc2c1.[Br-]`, the Activity in [1] came out at 97.2%; in [2], 90.6%; in data set [3], 98.9%; in data set [4] it was 98.5%; in [5] it was 99.6%; in data set [6] it was 98.2%. The Activity in data set [7] is 98.4%; in data set [8] it was 90.6%; in [9], 48.1%; in [10], 0.5%; in data set [11], 99%; in data set [12], 0%. Moreover, the Activity was 95.6% in [13] and 97.8% in data set [14].

As to `C=C(COC(=O)Cc1ccccc1)C(=O)c1ccc2cc(N(C)C)ccc2c1`, the Activity in [1] was found to be 95.3%; in [2], 89.2%; in [3], 99.1%; in [4], 97.5%; in data set [5] it was 98.7%; in data set [6], 98.3%. Moreover, the Activity in data set [7] was 97.7%; in [8] it was 71.5%; in [9], 42.4%; in [10] it was 1.2%; in data set [11], 98.1%; in data set [12], 0%. Also, the figures for the Activity in data set [13] and in [14] were 94.3% and 97.1%, respectively.

Consider `C=C(COC(=O)OCc1ccccc1)C(=O)c1ccc2cc(N(C)C)ccc2c1`, for which the Activity in data set [1] was 96.5%; in data set [2], 83.6%; in data set [3] it was 95.1%; in data set [4], 94.6%; in data set [5], 94.6%; in data set [6], 95.5%. In addition, the Activity turned out to be 96.5% in [7]; 65.4% in [8]; 41% in data set [9]; 3.9% in [10]; 97.4% in data set [11]; 0% in data set [12]. Besides, the Activity in data set [13] amounted to 93.4%; in data set [14] it was 94.5%.

For the compound `C=C(COc1ccccc1)C(=O)c1ccc2cc(N(C)C)ccc2c1`, the Activity was 95.5% in [1]; 87.9% in data set [2]; 93.5% in [3]; 92.7% in data set [4]; 93.2% in [5]; 93.5% in data set [6]. The Activity in data set [7] turned out to be 97.3%; in [8] it was 70.1%; in data set [9], 38.8%; in data set [10] it was 0.7%; in data set [11] it was 99.1%; in [12] it was 0%. Also, the Activity is listed as 91.2% in [13] and 93.5% in [14].
